Laboratory results published in US8980874B2, “Method and composition for treating diabetic ketoacidosis” (Midwestern University, priority 2009, dated 2015).
Non-standard residues stand in square brackets, D forms with d. Residues, ends and D or L forms follow the SMILES beside them.

Assays:
Type in all cases: in vivo
rat model of DKA [1] = experiment: Plasma ET-1 level (Enzyme Immunometric Assay) in diabetic ketoacidosis rats; conditions: for plasma ET-1, Day 4 (pre tx): baseline before treatment; for plasma ET-1, Day 4 (pre tx) / plasma ET-1, Day 4 (end of tx): mean±SEM; for effect of treatment on plasma ET-1 level: day 4, result in words (Table 4, FIG. 9); for plasma ET-1, Day 4 (end of tx): saline+insulin, alone or after bolus BMS-182874 9 mg/kg or BQ123 1 mg/kg
Procedure: In order to analyze the change in plasma ET-1 level during the treatment, blood samples were withdrawn through right femoral artery of the rats before and at the end of experiment and were collected into chilled EDTA tubes (1 mg/mL blood) containing aprotinin (500 KIU/mL of blood). The blood samples were centrifuged at 1,600×g for 15 minutes at 0° C. and plasma separated was stored at −70° C. until analyzed. ET-1 level was estimated using Assay's Design's Endothelin-1 Enzyme Immunometric Assay Kit (Nowicki et al., 2005; Brondani et al., 2007). Briefly, plasma samples and standards were added to wells coated with a monoclonal antibody specific for ET-1. The plate then was washed after 24 hours of incubation, leaving only bound ET-1 on the plate. A solution of horseradish peroxidase (HRP) labeled monoclonal antibody to ET-1 then was added, which binds to the ET-1 captured on the plate. The plate was incubated for 30 min, then washed to remove excess HRP labeled antibody. A solution of 3,3′,5,5′-tetramethylbenzidine (TMB) substrate was added, which generates a blue color when catalyzed by the HRP. Hydrochloric acid (1N) was added to stop the substrate reaction, and the resulting yellow color was read at 450 nm using DTX 800 Multimode detector. The data was analyzed with Multimode Detection Software (Beckman Coulter, Inc., Fullerton, Calif.). The measured optical density is directly proportional to the concentration of ET-1 in either standards/plasma. Blood samples from all the groups were collected before the start and at end of the treatment.
(§1) Group 4: Diabetic saline/insulin treated (D-Saline+insulin treated): Rats were injected with streptozotocin in citrate buffer (150 mg/kg ip) to induce diabetes and ketoacidosis. On day three, rats were treated with 1.5 U/kg regular insulin (Humulin® R (Regular human insulin, rDNA origin). On day four, saline and insulin treatment was carried out. Rats were infused via cannulated femoral vein saline, 0.9% NaCl at 80 mL/kg/hr and 1.5 U/kg/hr regular insulin for one hour. During the next two through four hours, rats were infused with saline, 0.9% NaCl at 40 mL/kg/hr and 1.5 U/kg/hr regular insulin (Yuen et al., 2008).
(§2) Group 5: Diabetic BMS-182874/saline/insulin treated (D-BMS+Saline+insulin treated): Rats were injected with streptozotocin in citrate buffer (150 mg/kg ip) to induce diabetes and ketoacidosis. On day three, rats were treated with 1.5 U/kg regular insulin. On day four, rats were administered a bolus dose of selective ETA receptor antagonist, BMS-182874 (9 mg/kg), then saline and insulin treatment was carried out. Rats were infused via cannulated femoral vein saline, 0.9% NaCl at 80 mL/kg/hr and 1.5 U/kg/hr regular insulin for one hour. During the next two through four hours rats were infused with saline, 0.9% NaCl at 40 mL/kg/hr and 1.5 U/kg/hr regular insulin.
(§3) Group 6: Diabetic BQ123/saline/insulin treated (D-BQ+saline+insulin treated): Same as above for Group 5, except BQ123 (1 mg/kg body weight) is used as a substitute for BMS-182874 (9 mg/kg).
(§4) Data are presented as mean±SEM. The significance of differences was estimated by one-way analysis of variance (intra group comparison with respect to base line data) and two-way analysis of variance (inter group comparison with respect to corresponding time points from each groups) followed by application of the Dunnett's Multiple Comparisons and Bonferroni test respectively. A P value of less than 0.05 was considered to be significant. The statistical analysis was processed with GraphPad Prism software Version 5.00.

rat model of DKA [2] = experiment: Arterial blood gases, electrolytes, lactate and hematocrit in diabetic ketoacidosis rats; conditions: for arterial blood pH, Day 4 (pre-tx) / arterial blood pCO2, Day 4 (pre-tx) / arterial blood pO2, Day 4 (pre-tx) / blood K+ level, Day 4 (pre-tx) / blood Na+ level, Day 4 (pre-tx) / blood hematocrit (Hct), Day 4 (pre-tx): baseline; for arterial blood pH, Day 4 (pre-tx): instrument could not record pH below 6.80, mean±SEM; for arterial blood pCO2, Day 4 (pre-tx) / arterial blood pO2, Day 4 (pre-tx) / blood K+ level, Day 4 (pre-tx) / blood Na+ level, Day 4 (pre-tx) / blood hematocrit (Hct), Day 4 (pre-tx): mean±SEM; for effect of treatment on arterial blood pH (acidosis): day 4, antagonist given with saline+insulin; for effect of treatment on arterial blood pH (acidosis) / effect of treatment on blood K+ levels / effect of treatment on blood lactate levels / effect of treatment on hematocrit: result in words; for effect of treatment on blood K+ levels / effect of treatment on blood lactate levels / effect of treatment on hematocrit: day 4, compared to diabetic untreated rats; for arterial blood pCO2, Day 4 (1 hour of tx) / arterial blood pCO2, Day 4 (end of tx) / arterial blood pO2, Day 4 (1 hour of tx) / arterial blood pO2, Day 4 (end of tx) / blood K+ level, Day 4 (1 hour tx) / blood K+ level, Day 4 (end of tx) / blood Na+ level, Day 4 (1 hour of tx) / blood Na+ level, Day 4 (end of tx) / blood hematocrit (Hct), Day 4 (1 hour of tx) / blood hematocrit (Hct), Day 4 (end of tx) / arterial blood pH, Day 4 (1 hour of tx) / arterial blood pH, Day 4 (end of tx): saline+insulin, alone or after bolus BMS-182874 9 mg/kg or BQ123 1 mg/kg; for arterial blood pH, Day 4 (1 hour of tx) / arterial blood pH, Day 4 (end of tx): instrument floor 6.80
Description: Arterial blood pH, pO2, pCO2, Na^+, K^+, lactate, and hematocrit were monitored prior to, at one hour, and at the end of treatment. Blood samples were drawn from the arterial cannula using blood gas sampling syringes (Innovative Medical Technologies, Inc. Leawood, Kans.) and analyzed using a GEM Premier 3000 unit (Instrument Laboratory, Lexington, Mass.). Blood samples were withdrawn from the femoral artery for baseline reading prior to start of treatment, after the first hour of treatment, and then at the end of the treatment (fifth hour of experiment).
as §1, §2, §3, §4

rat model of DKA [3] = experiment: Cardiovascular parameters (MAP, pulse pressure, heart rate) in diabetic ketoacidosis rats; conditions: result in words; for effect on mean arterial pressure: day 4, FIG. 3, antagonist given with saline+insulin; for effect on heart rate: day 4, FIG. 5, antagonist given with saline+insulin
Description: Rats were anaesthetized with urethane (1.5 g/kg ip.) and prepared for the determination of hemodynamic parameters (Gulati et al., 1997a; Gulati et al., 1997b). The anesthetized rats were shaved and immobilized to prepare for cannulation. A 2-3 centimeter (cm) incision was made above the femoral vein and artery and the vessels were dissected and cleaned. The left femoral vein was cannulated (PE-50 tubing, Clay Adams, Parsipanny, N.J.) and secured for drug administration. An ultra-miniature pressure transducer SPR-320 (2F Polyurethane), with a single pressure sensor side mounted at the tip (Millar Instruments, Houston, Tex.) was inserted in the left femoral artery to acquire the hemodynamic signals. Pressure transducer was connected to bridge amplifier (ML221 Bridge Amp; AD Instruments, Mountain View, Calif., USA) with Viking connector (AEC-10C) and the signals were continuously acquired at a sampling rate of 1000 S^−1 using Millar PowerLab 16/30 data acquisition system (AD Instruments, Mountain View, Calif., USA). Mean arterial pressure (MAP), heart rate (HR), and pulse pressure (PP) were determined and analyzed with LabChart-5.00 software program (Millar Instruments). After the experiment was completed, the animals were euthanized with a high dose of urethane (3 gm/kg).
as §1, §2, §3, §4

Row | Molecule | plasma ET-1, Day 4 (pre tx) (rat model of DKA [1]) [pg/mL] | effect of treatment on plasma ET-1 level (rat model of DKA [1]) | plasma ET-1, Day 4 (end of tx) (rat model of DKA [1]) [pg/mL] | arterial blood pH, Day 4 (pre-tx) (rat model of DKA [2]) | arterial blood pCO2, Day 4 (pre-tx) (rat model of DKA [2]) [mmHg] | arterial blood pO2, Day 4 (pre-tx) (rat model of DKA [2]) [mmHg] | blood K+ level, Day 4 (pre-tx) (rat model of DKA [2]) [mmol/L] | blood Na+ level, Day 4 (pre-tx) (rat model of DKA [2]) [mmol/L] | blood hematocrit (Hct), Day 4 (pre-tx) (rat model of DKA [2]) [%] | effect of treatment on arterial blood pH (acidosis) (rat model of DKA [2]) | effect of treatment on blood K+ levels (rat model of DKA [2]) | effect of treatment on blood lactate levels (rat model of DKA [2]) | effect of treatment on hematocrit (rat model of DKA [2]) | arterial blood pCO2, Day 4 (1 hour of tx) (rat model of DKA [2]) [mmHg] | arterial blood pCO2, Day 4 (end of tx) (rat model of DKA [2]) [mmHg] | arterial blood pO2, Day 4 (1 hour of tx) (rat model of DKA [2]) [mmHg] | arterial blood pO2, Day 4 (end of tx) (rat model of DKA [2]) [mmHg] | blood K+ level, Day 4 (1 hour tx) (rat model of DKA [2]) [mmol/L] | blood K+ level, Day 4 (end of tx) (rat model of DKA [2]) [mmol/L] | blood Na+ level, Day 4 (1 hour of tx) (rat model of DKA [2]) [mmol/L] | other results
1 | CC(C)C[C@@H]1NC(=O)[C@@H](C(C)C)NC(=O)[C@@H]2CCCN2C(=O)[C@@H](CC(=O)O)NC(=O)[C@@H](Cc2c[nH]c3ccccc23)NC1=O [BQ123, Cyclo(D-Trp-D-Asp-Pro-D-Val-Leu)] (cyclo(L[dW][dD]P[dV])) | 15.78 ± 4.11 | did not significantly affect plasma ET-1 level | 26.53 ± 5.52 | 6.82 ± 0.02 | 25.00 ± 3.7 | 130.2 ± 14.04 | 3.4 ± 0.45 | 140.00 ± 2.87 | 42.6 ± 4.81 | produced a significant improvement in arterial blood pH | significantly reduced the change in blood K^+ levels | significantly reduced the change in blood lactate levels | significantly reduced the hematocrit | 23.6 ± 2.17 | 23.2 ± 1.95 | 128.4 ± 11.006 | 141.2 ± 4.6 | 2.04 ± 0.29 | 2.38 ± 0.34 | 147 ± 1.3 | blood Na+ level, Day 4 (end of tx) (rat model of DKA [2]): 150.04 ± 2.43 mmol/L; blood hematocrit (Hct), Day 4 (1 hour of tx) (rat model of DKA [2]): 31.4 ± 2.97 %; blood hematocrit (Hct), Day 4 (end of tx) (rat model of DKA [2]): 31.8 ± 2.21 %; arterial blood pH, Day 4 (1 hour of tx) (rat model of DKA [2]): 6.81 ± 0.01; arterial blood pH, Day 4 (end of tx) (rat model of DKA [2]): 6.91 ± 0.01; effect on mean arterial pressure (rat model of DKA [3]): stabilized the arterial pressure; effect on heart rate (rat model of DKA [3]): did not produce any decrease in heart rate compared to baseline
2 | Insulin: Humulin® R (Regular human insulin, rDNA origin), infused with saline | 11.76 ± 1.94 | increased the plasma levels of ET-1 | 22.17 ± 2.67 | 6.81 ± 0.01 | 30.40 ± 2.46 | 145.00 ± 10.84 | 3.82 ± 0.29 | 135.00 ± 2.17 | 49.80 ± 2.27 | did not produce any significant improvement in acidosis | significantly reduced the change in blood K^+ levels | significantly reduced the change in blood lactate levels | significantly reduced the hematocrit | 29.00 ± 2.30 | 27.60 ± 2.21 | 160.20 ± 11.36 | 155.60 ± 11.43 | 2.92 ± 0.16 | 2.48 ± 0.24 | 141.60 ± 1.21 | blood Na+ level, Day 4 (end of tx) (rat model of DKA [2]): 148.60 ± 0.51 mmol/L; blood hematocrit (Hct), Day 4 (1 hour of tx) (rat model of DKA [2]): 38.80 ± 1.80%; blood hematocrit (Hct), Day 4 (end of tx) (rat model of DKA [2]): 30.20 ± 3.12 %; arterial blood pH, Day 4 (1 hour of tx) (rat model of DKA [2]): 6.80 ± 0.01; arterial blood pH, Day 4 (end of tx) (rat model of DKA [2]): 6.81 ± 0.04; effect on mean arterial pressure (rat model of DKA [3]): produced much less fall in arterial pressure compared to untreated rats; effect on pulse pressure (rat model of DKA [3]; day 4, FIG. 4, antagonist given with saline+insulin): produced much less fall in pulse pressure compared to untreated rats; effect on heart rate (rat model of DKA [3]): did not produce any decrease in heart rate compared to baseline
